Data as given in patent publication US8846636B2, “Nucleoside analogues with quaternary carbon stereogenic centers and methods of use” (LCB Pharma Inc., priority 2008, dated 2014).

Legend:
Assay type in all cases: cell-based
[1] = test system: MOLT-4; experiment: MTT cell proliferation assay, MOLT-4
Description: (§1) The antiviral and antitumor activities of the compounds of the invention were evaluated by a cellular proliferation assay. The MTT [3-(4,5-dimethylthiazol-2-yl)-2,5-diphenyltetrazolium bromide] assay, first described by Mosmann (Mosmann T., “Rapid colorimetric assay for cellular growth and survival: application to proliferation and cytotoxicity assays,” J. Immunol. Methods 1983 Dec. 16; 65(1-2):55-63, and incorporated by reference in its entirety) is based on the ability of a mitochondrial dehydrogenase enzyme from viable cells to cleave the tetrazolium rings of the pale yellow MTT. The cleavage reaction form a dark blue formazan crystals which is largely impermeable to cell membranes and accumulation within healthy cells. Solubilisation of the cells by the addition of a detergent liberates and solubilizes the crystals. The number of surviving cells is directly proportional to the level of the formazan product created. The color can then be quantified using a simple colorimetric assay. The results can be read on a multiwell scanning spectrophotometer (ELISA reader).
(§2) In Tables 1 and 2, IC50 values are presented for various cell lines in micromolar units (μm), “Gemci” is Gemcitabine, and “5-FU” is 5-fluorouracil.

[2] = test system: HL-60; experiment: MTT cell proliferation assay, HL-60; settings: HL-60 cell line (acute promyelocytic leukemia)
Description: as §1, §2

[3] = test system: 22Rv1; experiment: MTT cell proliferation assay, 22Rv1; settings: 22Rv1 cell line (prostate)
Description: as §1, §2

[4] = test system: BxPC-3; experiment: MTT cell proliferation assay, BxPC-3; settings: BxPC-3 cell line (pancreas)
Description: as §1, §2

[5] = test system: 1A6; experiment: MTT cell proliferation assay, 1A6; settings: 1A6 cell line (urinary bladder)
Description: as §1, §2

[6] = test system: OVCAR3; experiment: MTT cell proliferation assay, OVCAR3; settings: OVCAR3 cell line (ovary)
Description: as §1, §2

[7] = test system: PFSK-1; experiment: MTT cell proliferation assay, PFSK-1; settings: PFSK-1 cell line (brain)
Description: as §1, §2

[8] = test system: 786-O; experiment: MTT cell proliferation assay, 786-O; settings: 786-O cell line (kidney)
Description: as §1, §2

[9] = test system: DLD-1; experiment: MTT cell proliferation assay, DLD-1; settings: DLD-1 cell line (colon)
Description: as §1, §2

[10] = test system: HCC1143; experiment: MTT cell proliferation assay, HCC1143; settings: HCC1143 cell line (mammary gland; breast)
Description: as §1, §2

[11] = test system: MCF7; experiment: MTT cell proliferation assay, MCF7; settings: MCF7 cell line (mammary gland; breast)
Description: as §1, §2

[12] = test system: Colo 829; experiment: MTT cell proliferation assay, Colo 829; settings: Colo 829 cell line (skin)
Description: as §1, §2

[13] = test system: HCT 116; experiment: MTT cell proliferation assay, HCT 116; settings: HCT 116 cell line (colon)
Description: as §1, §2

[14] = test system: ZR-75-1; experiment: MTT cell proliferation assay, ZR-75-1; settings: ZR-75-1 cell line (mammary gland; breast)
Description: as §1, §2

[15] = test system: NCI H1395; experiment: MTT cell proliferation assay, NCI H1395
Description: as §1, §2

[16] = test system: NCI H2052; experiment: MTT cell proliferation assay, NCI H2052; settings: NCI H2052 cell line (tumor stage 4 derived from pleural effusion)
Description: as §1, §2

C[C@]1(C(=O)NN)[C@@H](CO)O[C@@H](n2cc(F)c(N)nc2=O)[C@@H]1O [LCB-1085, (2S,3R,4R,5R)-5-(4-amino-5-fluoro-2-oxopyrimidin-1(2H)-yl)-4-hydroxy-2-(hydroxymethyl)-3-methyltetrahydrofuran-3-carbohydrazide]
IC50 ([1]; Homo sapiens, MOLT-4, MOLT-4 cell line (acute lymphoblastic leukemia)): 80 µM
IC50 ([2]; Homo sapiens): > 100 µM
IC50 ([3]; Homo sapiens): > 100 µM
IC50 ([4]; Homo sapiens): > 100 µM
IC50 [5]: > 100 µM
IC50 ([6]; Homo sapiens, OVCAR-3): > 100 µM
IC50 ([7]; Homo sapiens): > 100 µM
IC50 ([8]; Homo sapiens, 786-0): > 100 µM
IC50 ([9]; Homo sapiens): > 100 µM
IC50 ([10]; Homo sapiens): > 100 µM
IC50 ([11]; Homo sapiens): > 100 µM
IC50 ([12]; Homo sapiens): > 100 µM
IC50 ([13]; Homo sapiens): > 100 µM
IC50 ([14]; Homo sapiens): > 100 µM
IC50 ([15]; Homo sapiens, NCI-H1395, NCI H1395 cell line (lung)): > 100 µM
IC50 ([16]; Homo sapiens): > 100 µM

((2S,3S,4R,5R)-5-(2-amino-6-chloro-9H-purin-9-yl)-4-hydroxy-3-methyltetrahydrofuran-2,3-diyl)dimethanol (A), ((2S,3S,4R,5R)-5-(6-amino-2-chloro-9H-purin-9-yl)-4-hydroxy-3-methyltetrahydrofuran-2,3-diyl)dimethanol (B) [LCB-1094]
IC50 ([1]; MOLT-4 cell line (acute lymphoblastic leukemia)): > 500 µM
IC50 [2]: > 500 µM
IC50 [3]: > 500 µM
IC50 [4]: > 500 µM
IC50 [5]: > 500 µM
IC50 [6]: > 500 µM
IC50 [7]: > 500 µM
IC50 [8]: > 500 µM
IC50 [9]: > 500 µM
IC50 [10]: > 500 µM
IC50 [11]: > 500 µM
IC50 [12]: > 500 µM
IC50 [13]: > 500 µM
IC50 [14]: > 500 µM
IC50 ([15]; NCI H1395 cell line (lung)): > 500 µM
IC50 [16]: > 500 µM
